Results taken from patent US20210220241A1, “Body Sculpting” (Sculpt B.V., priority 2014, published 2021).

What was measured:
[1] = Skin and fat penetration assay, cubes of human fat with skin (Example 8); format: in vitro ADME; settings: 0.25 ml hydrogel applied once, 20 hrs
Procedure: Cubes of human fat (5×5×5 cm) with skin attached from obese female subjects that underwent esthetic surgery was dissected at 4° C. Cubes were transferred to containers so the skin would overlay the rim of the container. 0.25 ml of hydrogels comprising 2.75 mg/ml free octopamine, 5 mg/ml octopamine decanoate or 3.98 mg/ml octopamine pentanoate were applied once and left to penetrate for 20 hrs. Cubes were subsequently frozen at −80° C.
Upon defrosting, skin was carefully removed taking care not to contaminate the underlying fat. The fat was dissected to yield a column of 1×1 cm of fat that was directly under the site of application. The column was sliced to yield 0.5 cm thick slices covering 0-2cm fat depth under the site of application. Tissue was sonicated in 5 ml PBS (5 mM glucose), samples were spun down (13000 rpm for 30 min at 4° C.). Clear supernatant was removed with an injection needle and syringe and frozen until analysis. Analysis of octopamine was performed as described in Example 7.

human volunteers = experiment: Blood pressure, heart rate and side effects in human volunteers (Example 10); settings: humans, topical hydrogel treatment regimes
human subject = experiment: Removal of cellulite on a human subject (Example 11); format: in vivo; settings: hydrogel 3.98 mg/ml, 5 ml once daily, area with moderate cellulite, after three days
Procedure: A hydrogel comprising 3.98 mg/ml octopamine pentanoate (5 ml) was applied once daily on a human subject in an area with moderate cellulite.

[2] = Stability / hydrolysis in PBS at 37 degrees (Example 6); format: physicochemical; settings: PBS at 37 degrees
Procedure: Samples were analyzed using HPLC UV.

[3] = Plasma levels of octopamine in human volunteers (Example 10); format: in vivo; settings: humans, 2.5 ml or 5 ml hydrogel
Procedure: After thorough washing of hands, blood was sampled using […]. Blood (40 microliter) was sampled using a capillary that protruded the cap of the vial and spun down into 300 microliter vials containing 10 microliter of heparin 20 IE/ml. Plasma was pipetted off and transferred to 300 microliter vials and stored at -20° C. until analysis. Octopamine was analyzed as described in Example 7. […] FIG. 17b), and of octopamine pentanoate (3.98 mg/ml, 2.5 ml, once daily); FIG. 17c). Experiments are an average of one or two experiments (n=1-2).

## CCCCC(=O)Oc1ccc(C(O)CN)cc1.Cl (stereo not drawn) [octopamine pentanoate, 4-(2-amino-1-hydroxyethyl)phenyl valeroate hydrochloride]
[1]
  Concentrations of free octopamine in fat layers (0-2 cm depth) compared with hydrogel comprising octopamine: higher concentrations
  Penetration through skin and fat tissue: penetrate through both skin and fat tissue
Human volunteers
  Side effects: no side effects were reported
Human subject
  Cellulite: noticeably decreased
[2]
  Hydrolysis in PBS compared with plasma or fat tissue: much lower rate
[3]
  Plasma levels of free octopamine upon administration of hydrogel: did not result in unacceptable plasma levels
